Assay results taken from the NIST ThermoML archive (doi:10.1021/je400803f).

Assay: xn = mol fraction of the nth substance listed
Conditions: 101 kPa, Liquid, Vibrating tube method

CCCCN(C=O)CCCC [N,N-dibutylformamide] + CCCC[N+]1(C)CCCC1.FC(F)(F)C(F)(F)[P-](F)(F)(F)(C(F)(F)C(F)(F)F)C(F)(F)C(F)(F)F
mass density [kg/m3]
Conditions	293.15 K	298.15 K	303.15 K	308.15 K	313.15 K	318.15 K	323.15 K
x2 = 0.0351	928.01	923.97	919.87	915.81	911.67	907.43	903.16
x2 = 0.0697	972.58	968.41	964.18	960.06	955.82	951.45	947.14
x2 = 0.0998	1008.79	1004.57	1000.33	996.06	991.74	987.31	982.93
x2 = 0.1498	1064.17	1059.81	1055.39	1051.03	1046.54	1042.09	1037.62
x2 = 0.1994	1114.29	1109.89	1105.41	1100.9	1096.39	1091.73	1087.01
x2 = 0.2999	1204.19	1199.58	1194.89	1190.17	1185.45	1180.61	1175.67
x2 = 0.4003	1281.29	1276.52	1271.65	1266.78	1261.89	1256.88	1251.71
x2 = 0.499	1347.44	1342.55	1337.52	1332.49	1327.52	1322.34	1317.03
x2 = 0.5993	1406.59	1401.54	1396.37	1391.2	1386.12	1380.87	1375.47
x2 = 0.6799	1449.07	1443.87	1438.69	1433.45	1428.23	1422.89	1417.48
x2 = 0.7754	1494.51	1489.34	1483.96	1478.61	1473.39	1467.94	1462.42
x2 = 0.8021	1506.51	1501.2	1495.89	1490.51	1485.21	1479.75	1474.28
x2 = 0.9011	1548.52	1543.24	1537.81	1532.31	1526.89	1521.4	1515.91
x2 = 0.949	1568.08	1562.74	1557.33	1551.79	1546.31	1540.77	1535.23

CCNC=O [N-ethylformamide] + CCCC[N+]1(C)CCCC1.FC(F)(F)C(F)(F)[P-](F)(F)(F)(C(F)(F)C(F)(F)F)C(F)(F)C(F)(F)F
mass density [kg/m3]
Conditions	293.15 K	298.15 K	303.15 K	308.15 K	313.15 K	318.15 K	323.15 K
x2 = 0.0355	1046.38	1042.01	1037.61	1033.05	1028.58	1024.03	1019.35
x2 = 0.0753	1128.67	1124.07	1119.47	1114.62	1109.94	1105.19	1100.26
x2 = 0.0995	1169.56	1164.94	1160.15	1155.23	1150.34	1145.54	1140.56
x2 = 0.1508	1240.4	1235.52	1230.53	1225.54	1220.42	1215.44	1210.24
x2 = 0.2001	1293.64	1288.61	1283.5	1278.35	1273.19	1267.97	1262.79
x2 = 0.3045	1375.94	1370.73	1365.53	1360.23	1354.95	1349.61	1344.26
x2 = 0.3996	1429.28	1424.04	1418.68	1413.37	1407.95	1402.56	1397.21
x2 = 0.5028	1472.71	1467.38	1462.01	1456.63	1451.21	1445.76	1440.28
x2 = 0.5527	1489.92	1484.53	1479.12	1473.75	1468.31	1462.86	1457.36
x2 = 0.5989	1504.15	1498.78	1493.4	1487.95	1482.48	1477.03	1471.54
x2 = 0.7015	1531.11	1525.64	1520.2	1514.75	1509.27	1503.82	1498.32
x2 = 0.7983	1552.06	1546.66	1541.23	1535.76	1530.25	1524.73	1519.18
x2 = 0.8866	1568.75	1563.32	1557.82	1552.35	1546.84	1541.33	1535.77
x2 = 0.951	1580.11	1574.66	1569.19	1563.71	1558.18	1552.64	1547.05

CCCC[N+]1(C)CCCC1.FC(F)(F)C(F)(F)[P-](F)(F)(F)(C(F)(F)C(F)(F)F)C(F)(F)C(F)(F)F + CNC=O
mass density [kg/m3]
Conditions	293.15 K	298.15 K	303.15 K	308.15 K	313.15 K	318.15 K	323.15 K
x1 = 0.017	1058.37	1053.77	1049.14	1044.53	1039.79	1035.11	1030.3
x1 = 0.038	1115.08	1110.31	1105.47	1100.72	1095.79	1091	1085.98
x1 = 0.064	1172.33	1167.39	1162.43	1157.5	1152.45	1147.53	1142.27
x1 = 0.1395	1288.62	1283.34	1278.09	1272.85	1267.61	1262.38	1256.78
x1 = 0.1994	1349.8	1344.44	1339.03	1333.6	1328.11	1322.58	1317.13
x1 = 0.2991	1419.35	1413.93	1408.4	1402.86	1397.22	1391.56	1385.88
x1 = 0.4005	1466.49	1460.95	1455.39	1449.79	1444.2	1438.48	1432.75
x1 = 0.5044	1501.13	1495.58	1490.07	1484.49	1478.87	1473.25	1467.48
x1 = 0.5964	1524.64	1519.12	1513.49	1507.92	1502.28	1496.79	1491.13
x1 = 0.6471	1535.54	1530.04	1524.39	1518.85	1513.18	1507.72	1502.01
x1 = 0.7548	1555.34	1549.77	1544.13	1538.58	1532.92	1527.43	1521.8
x1 = 0.8413	1568.65	1563.05	1557.45	1551.88	1546.25	1540.73	1535.12
x1 = 0.9029	1577.04	1571.47	1565.91	1560.34	1554.73	1549.18	1543.58

CCCC[N+]1(C)CCCC1.FC(F)(F)C(F)(F)[P-](F)(F)(F)(C(F)(F)C(F)(F)F)C(F)(F)C(F)(F)F + CC(=O)N(C)C
mass density [kg/m3]
Conditions	293.15 K	298.15 K	303.15 K	308.15 K	313.15 K	318.15 K	323.15 K
x1 = 0.0182	983.51	978.8	974.05	969.23	964.38	959.48	954.43
x1 = 0.0658	1076.12	1071.23	1066.29	1061.3	1056.27	1051.2	1046.01
x1 = 0.099	1128.83	1123.84	1118.81	1113.75	1108.63	1103.46	1098.22
x1 = 0.1925	1243.41	1238.24	1233.05	1227.86	1222.59	1217.27	1211.86
x1 = 0.2995	1334.81	1329.56	1324.29	1318.96	1313.61	1308.22	1302.76
x1 = 0.4032	1399.72	1394.36	1389.05	1383.7	1378.3	1372.86	1367.34
x1 = 0.5012	1446.97	1441.77	1436.59	1431.01	1425.38	1420.2	1414.53
x1 = 0.6048	1487.12	1482	1476.86	1470.97	1465.48	1460.22	1454.65
x1 = 0.7078	1520.04	1514.92	1509.86	1504.04	1498.52	1492.71	1487.58
x1 = 0.806	1546.68	1541.65	1536.23	1530.12	1524.91	1519.13	1513.85
x1 = 0.8469	1556.58	1551.46	1546.01	1539.99	1534.65	1528.99	1523.64
x1 = 0.9176	1572.41	1567.01	1561.51	1555.89	1550.24	1544.79	1539.24
